Data from US20100234390A1, “NOVEL COMPOUND AND THEIR USE” (priority 2007, published 2010).

What was measured:
Assay in all cases: Agar dilution MIC
[1] = test system: M. catarrhalis ATCC 43617; type: cell-based, Moraxella catarrhalis; settings: Moraxella catarrhalis, ATCC43617, 35° C., 16-20 hours, read-out: Antimicrobial Screening (MIC)
Protocol: (§1) Briefly, the compounds of invention were weighed, dissolved in dimethyl sulfoxide, serially two fold diluted in the same solvent and then incorporated into molten Mueller Hinton Agar (MHA) in a petridish just before solidification, with each petridish containing a different concentration of a compound.
(§2) The bacterial inoculum was prepared by picking 3 to 5 well isolated bacterial colonies with the same morphological appearance from an 18-24 hours old culture with an inoculating loop, transferring the growth to a tube containing 3 mL of normal saline and adjusting the turbidity of the saline suspension to 0.5 Mc Farland Turbidity Standard equivalent to a bacterial population of 1.5×10^8 colony forming units (CFU) per mL of suspension. The suspension was diluted 1:10 in saline (i.e. 0.5 mL suspension 4.5 mL saline) to get a bacterial population of 1.5×10^7 CFU/mL as inoculum.
(§3) The inoculated petridishes were incubated at 35° C. in an ambient atmosphere for 16-20 hours.

[2] = test system: M. catarrhalis ATCC 43628; type: cell-based, Moraxella catarrhalis; settings: Moraxella catarrhalis, ATCC43628, 35° C., 16-20 hours, read-out: Antimicrobial Screening (MIC)
Protocol: as §1, §2, §3

[3] = test system: M. catarrhalis ATCC 43627; type: cell-based, Moraxella catarrhalis; settings: Moraxella catarrhalis, ATCC43627, 35° C., 16-20 hours, read-out: Antimicrobial Screening (MIC)
Protocol: as §1, §2, §3

[4] = test system: S. haemolyticus MRO 02064; type: cell-based; settings: Staphylococcus haemolyticus, MRO02064, 35° C., 16-20 hours, read-out: Antimicrobial Screening (MIC)
Protocol: as §1, §2, §3

S. epidermidis MRO 02095 = type: cell-based; settings: Staphylococcus epidermidis, MRO02095, 35° C., 16-20 hours, read-out: Antimicrobial Screening (MIC)
Protocol: as §1, §2, §3

[5] = test system: S. epidermidis MRO 002046; type: cell-based; settings: Staphylococcus epidermidis, MRO002046, 35° C., 16-20 hours, read-out: Antimicrobial Screening (MIC)
Protocol: as §1, §2, §3

S. epidermidis MRO 02045 = type: cell-based; settings: Staphylococcus epidermidis, MRO02045, 35° C., 16-20 hours, read-out: Antimicrobial Screening (MIC)
Protocol: as §1, §2, §3

[6] = test system: S. saprophyticus MRO 02003; type: cell-based; settings: Staphylococcus saprophyticus, MRO02003, 35° C., 16-20 hours, read-out: Antimicrobial Screening (MIC)
Protocol: as §1, §2, §3

S. epidermidis MRO 02002 = type: cell-based; settings: Staphylococcus epidermidis, MRO02002, 35° C., 16-20 hours, read-out: Antimicrobial Screening (MIC)
Protocol: as §1, §2, §3

E. faecium MRO 04037 = type: cell-based, Enterococcus faecium; settings: Enterococcus faecium, MRO04037, 35° C., 16-20 hours, read-out: Antimicrobial Screening (MIC)
Protocol: as §1, §2, §3

E. faecium MRO 04038 = type: cell-based, Enterococcus faecium; settings: Enterococcus faecium, MRO04038, 35° C., 16-20 hours, read-out: Antimicrobial Screening (MIC)
Protocol: as §1, §2, §3

E. faecium ATCC 700221 = type: cell-based, Enterococcus faecium; settings: Enterococcus faecium, ATCC700221, 35° C., 16-20 hours, read-out: Antimicrobial Screening (MIC)
Protocol: as §1, §2, §3

E. faecium MRO 04198 = type: cell-based, Enterococcus faecium; settings: Enterococcus faecium, MRO04198, 35° C., 16-20 hours, read-out: Antimicrobial Screening (MIC)
Protocol: as §1, §2, §3

S. aureus MRO 00059 = type: cell-based, Staphylococcus aureus; settings: Staphylococcus aureus, MRO00059, 35° C., 16-20 hours, read-out: Antimicrobial Screening (MIC)
Protocol: as §1, §2, §3

S. aureus ATCC 43300 = type: cell-based, Staphylococcus aureus; settings: Staphylococcus aureus, ATCC43300, 35° C., 16-20 hours, read-out: Antimicrobial Screening (MIC)
Protocol: as §1, §2, §3

S. aureus MRO 0001 = type: cell-based, Staphylococcus aureus; settings: Staphylococcus aureus, MRO0001, 35° C., 16-20 hours, read-out: Antimicrobial Screening (MIC)
Protocol: as §1, §2, §3

S. aureus MRO 00055 = type: cell-based, Staphylococcus aureus; settings: Staphylococcus aureus, MRO00055, 35° C., 16-20 hours, read-out: Antimicrobial Screening (MIC)
Protocol: as §1, §2, §3

S. aureus MRO 00013 = type: cell-based, Staphylococcus aureus; settings: Staphylococcus aureus, MRO00013, 35° C., 16-20 hours, read-out: Antimicrobial Screening (MIC)
Protocol: as §1, §2, §3

S. aureus MRO 00030 = type: cell-based, Staphylococcus aureus; settings: Staphylococcus aureus, MRO00030, 35° C., 16-20 hours, read-out: Antimicrobial Screening (MIC)
Protocol: as §1, §2, §3

S. aureus MRO 0003 = type: cell-based, Staphylococcus aureus; settings: Staphylococcus aureus, MRO0003, 35° C., 16-20 hours, read-out: Antimicrobial Screening (MIC)
Protocol: as §1, §2, §3

S. aureus MRO 002053 = type: cell-based, Staphylococcus aureus; settings: Staphylococcus aureus, MRO002053, 35° C., 16-20 hours, read-out: Antimicrobial Screening (MIC)
Protocol: as §1, §2, §3

S. aureus MRO 00048 = type: cell-based, Staphylococcus aureus; settings: Staphylococcus aureus, MRO00048, 35° C., 16-20 hours, read-out: Antimicrobial Screening (MIC)
Protocol: as §1, §2, §3

S. aureus ATCC 29213 = type: cell-based, Staphylococcus aureus; settings: Staphylococcus aureus, ATCC29213, 35° C., 16-20 hours, read-out: Antimicrobial Screening (MIC)
Protocol: as §1, §2, §3

E. faecalis MRO 04035 = type: cell-based, Enterococcus faecalis; settings: Enterococcus faecalis, MRO04035, 35° C., 16-20 hours, read-out: Antimicrobial Screening (MIC)
Protocol: as §1, §2, §3

E. faecalis MRO 04205 = type: cell-based, Enterococcus faecalis; settings: Enterococcus faecalis, MRO04205, 35° C., 16-20 hours, read-out: Antimicrobial Screening (MIC)
Protocol: as §1, §2, §3

E. faecalis MRO 04050 = type: cell-based, Enterococcus faecalis; settings: Enterococcus faecalis, MRO04050, 35° C., 16-20 hours, read-out: Antimicrobial Screening (MIC)
Protocol: as §1, §2, §3

E. faecalis ATCC 51299 = type: cell-based, Enterococcus faecalis; settings: Enterococcus faecalis, ATCC51299, 35° C., 16-20 hours, read-out: Antimicrobial Screening (MIC)
Protocol: as §1, §2, §3

E. faecalis ATCC 29212 = type: cell-based, Enterococcus faecalis; settings: Enterococcus faecalis, ATCC29212, 35° C., 16-20 hours, read-out: Antimicrobial Screening (MIC)
Protocol: as §1, §2, §3

Measured: MIC

COC(=S)NC[C@H]1CN(c2ccc(N3CCN(C(=O)COCc4ccccc4)CC3)c(F)c2)C(=O)O1 [Example 45, (S)—O-Methyl (3-(4-(4-(2-(benzyloxy)acetyl)piperazin-1-yl)-3-fluorophenyl)-2-oxooxazolidin-5-yl)methylcarbamothioate]
2 µg/mL: [3]
1 µg/mL: [2] | S. epidermidis MRO 02095 | [5] | S. epidermidis MRO 02045 | [6] | S. epidermidis MRO 02002 | S. aureus MRO 00055 | S. aureus MRO 00013 | S. aureus MRO 00030 | S. aureus MRO 0003 | S. aureus MRO 002053 | S. aureus ATCC 29213
0.5 µg/mL: all other assays above

COC(=S)NC[C@H]1CN(c2ccc(N3CCN(C(=O)C4CC4)CC3)c(F)c2)C(=O)O1 [Example 47, (S)—O-Methyl (3-(4-(4-(cyclopropanecarbonyl)piperazin-1-yl)-3-fluorophenyl)-2-oxooxazolidin-5-yl)methylcarbamothioate]
2 µg/mL: [2] | [3]
1 µg/mL: [1] | S. epidermidis MRO 02045 | [6] | S. epidermidis MRO 02002 | S. aureus MRO 00055 | S. aureus MRO 00013 | S. aureus MRO 00030 | S. aureus MRO 0003 | S. aureus ATCC 29213
0.5 µg/mL: all other assays above

COC(=S)NC[C@H]1CN(c2ccc(N3CCN(C(=O)Cn4cnnn4)CC3)c(F)c2)C(=O)O1 [Example 72, (S)—O-Methyl (3-(4-(4-(2-(1H-tetrazol-1-yl)acetyl)piperazin-1-yl)-3-fluorophenyl)-2-oxooxazolidin-5-yl)methylcarbamothioate]
2 µg/mL: [1] | [2] | [3]
1 µg/mL: [6] | S. aureus ATCC 43300 | S. aureus MRO 00055 | S. aureus MRO 00013 | S. aureus MRO 0003 | S. aureus ATCC 29213
0.5 µg/mL: all other assays above
